{
  "source": "patent US20050129779A1",
  "about": "“Use of a hsp inducing compound to limit the side effects of retinoids” (priority 2002, published 2005)",
  "key": {"[1]": {"tested_on": "HSP 70", "conditions": "ex vivo skin irradiated with 200 mJ/cm^2 UVB; 10^-7 retinoic acid; 1-3% extract", "protocol": "The samples were either treated or untreated with 10^−7retinoic acid plus 1-3% of the extract from example 1. The skin samples were subsequently fixed in 9% formol salt for 10 hours. They were then embedded in paraffin using an automated method. 2-3 urn sections were then cut to be used for immunostaining.\nThe experiments in example three were repeated except that the skin samples were irradiated with a 200 mJ/cm^2 dose of UVB."}, "[2]": {"tested_on": "HSP 70", "assay": "Immuno-blot of HSP in cultured human fibroblasts", "type": "cell-based", "conditions": "10^-7 M ATRA, 3% extract", "method": "[…] Several different experimental conditions were used for the fibroblasts.\nThe conditions that were tested on the fibroblasts were as follows: • Control condition (non-treated cells) • Cells treated with 10^−7M all-trans retinoic acid (ATRA) • Cells treated with 3% of the extract from example 1 • Cells treated with 10^−7 M all-trans retinoic acid and 3% of the extract from example 1.\nThe results illustrated in FIGS. 1 and 2 represent the quantities of HSP obtained by immunoblotting carried out on the human fibroblasts following the treatments in various culture conditions."}, "[3]": {"tested_on": "HSP 70", "assay": "Ex vivo immunostaining of HSP 70 in cultured skin samples", "type": "cell-based", "conditions": "ex vivo skin cultured 5 days; 10^-7 retinoic acid; 1-3% extract", "source_text": "Ex vivo immunostaining studies have enabled it to be determined that HSP 70 is expressed in skin samples which have been cultured for 5 days. The samples were either treated or untreated with 10^−7retinoic acid plus 1-3% of the extract from example 1."}, "[4]": {"tested_on": "IL-1 alpha", "assay": "Interleukin-1 ELISA in HaCat keratinocytes and fibroblasts (inflammation induced by retinoids)", "type": "cell-based, human", "conditions": "10^-7 M ATRA 6 days, 3% extract 48 hours", "method": "The Artemia extract from example 1 was used at 3% in in vitro tests in order to show the benefits of applying it in combination with retinoids, with the overall goal of diminishing the inflammation induced by retinoids.\nHuman HaCat keratinocytes and fibroblasts were cultured in 100mm diameter culture dishes. When the cells reached 50% confluence, they were either treated with 3% of extract from example 1 or not, for 48 hours. In a parallel manner, concentrations of 10^−7M all-trans retinoic acid (ATRA) were, or were not, applied.\nThe following experimental conditions were used for the different treatment groups: • Control condition (no treatment); • Extract from example 1 for 48n hours; • All-trans retinoic acid (ATRA) for 6 days; • All-trans retinoic acid (ATRA) for 6 days of which 48 hours were treated in combination with the extract from example 1.\nAfter six days in culture, the dose of Interleukin-1 was determined using ELISA, to show evidence of an inflammatory reaction."}},
  "data": [
    {"smiles": "CC1=C(/C=C/C(C)=C/C=C/C(C)=C/C(=O)O)C(C)(C)CCC1", "note": "[retinoic acid, all-trans retinoic acid]", "values": [
      {"measurement": "HSP 70 expression in skin samples following UV stress (immunostaining)", "setting": "[1]", "result": "clearly diminished"},
      {"measurement": "HSP 70 expression (immuno-blot, FIG. 2)", "setting": "[2]; aging human fibroblasts (printed: cultured)", "result": "slightly augmented"},
      {"measurement": "HSP 70 expression (immuno-blot, FIG. 1)", "setting": "[2]; young human fibroblasts (printed: cultured for 24 hours)", "result": "diminished"},
      {"measurement": "HSP 70 expression in skin samples (immunostaining)", "setting": "[3]", "result": "clearly express less HSP 70 than non-treated skin samples"},
      {"measurement": "IL-1 alpha concentration / inflammatory response (ELISA, FIG. 3)", "setting": "[4]", "result": "significantly augmented"}
    ]}
  ]
}
